Test results: patent US5606037A, “Processes antineoplastic heteronaphthoquinones” (BioChem Pharma Inc., priority 1995, dated 1997)
pIC50: −log10 of the molar value. Counter-ions that a name gives are not always drawn.

Legend:
Type in all cases: cell-based, Human
VLB/OV3 = experiment: Resistance ratio of SKVLB over SKOV3 cytotoxicity (VLB/OV3); details: ratio SKVLB to SKOV3; Table 1; 2880 min
Method: The microculture tetrazolium assay was used to test in vitro cytotoxicity. This assay is described in Plumb, J. A. et al., 1989 Cancer Research 49, 4435-4440, which is herein incorporated by reference. The cytotoxicity of compounds towards tumor cells is measured in vitro using the assay. This assay method is based upon the ability of live, but not dead cells to reduce the yellow water soluble dye 3-(4,5-dimethylthiazol-2-yl)-2,5-diphenyltetrazolium bromide (MTT) to its water insoluble purple formazan product.
SKOV3 (Ovarian adenocarcinoma)--provided by Dr. V. Ling, Ontario Cancer Institute.
SKVLB (Ovarian; multidrug resistant)--Dr. V. Ling, Ontario Cancer Institute.
For each assay, doxorubicin is included as an inter-assay standard. This allows us to monitor the behaviour of the assay in general, and in particular, to check that the SKVLB line has maintained its resistant phenotype.
Cells are plated out in 100 μl of culture medium in the microtiter plates at a density of around 1,500-4,000 cells per well. The plates are incubated overnight to allow the cells to become adherent after which the test compound is added (100 μl of appropriate dilution per well). The cells are incubated with test compound at 37° C. for 48 h after which the compound is replaced with fresh medium. After a further 48 h incubation at 37° C., 50 μl of MTT solution (2 mg/ml) is added to each well. The plates are incubated in the dark for 4 h at 37° C. after which the medium is removed. The MTT formazan product is extracted from the cells by the addition of 200 μl DMSO followed by 50 μl of Sorensen's buffer. The plates are shaken briefly and the absorbance at 570 nm is read using a Molecular Devices UV max plate reader. Curves are fit to the MTT assay data using a four parameter logistic equation, and the data are normalized to fit a 0% to 100% survival scale.

[1] = test system: SKVLB (Ovarian; multidrug resistant); experiment: In vitro cytotoxicity, microculture tetrazolium (MTT) assay, SKVLB; details: Homo sapiens; SKVLB multidrug resistant ovarian; 48 h with compound, further 48 h, MTT; Table 1
In short: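 Multidrug-resistant SKVLB ovarian cells, 1,500–4,000 per well, exposed to compound (1:3 dilutions, 100 μM to 1.7 nM, quadruplicate) for 48 h at 37 °C, then 48 h in fresh medium. Viability by MTT reduction, formazan read at 570 nm; four-parameter logistic fit on a 0–100% survival scale.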

[2] = test system: T47D (Ductal carcinoma of breast); experiment: In vitro cytotoxicity, microculture tetrazolium (MTT) assay, T47D; details: Homo sapiens, 48 h with compound, further 48 h, Table 1
In short: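 Adherent cells (1,500-4,000/well) were exposed to compound in 1:3 dilutions from 100 μM to 1.7 nM, in quadruplicate, for 48 h at 37° C, followed by 48 h in fresh medium. MTT formazan was read at 570 nm, and data were fitted by four-parameter logistic on a 0-100% survival scale.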

Lox (Melanoma) = experiment: In vitro cytotoxicity, microculture tetrazolium (MTT) assay, LOX; details: Homo sapiens, 48 h with compound, further 48 h, Table 1
In short: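 LOX melanoma cells, 1,500–4,000 per well, exposed to compound (1:3 dilutions, 100 μM to 1.7 nM) for 48 h at 37° C., then 48 h in fresh medium. MTT reduction read at 570 nm; four-parameter logistic fit normalized to 0–100% survival.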

[3] = test system: SKOV3 (Ovarian adenocarcinoma); experiment: In vitro cytotoxicity, microculture tetrazolium (MTT) assay, SKOV3; details: Homo sapiens, SK-OV-3; SKOV3 ovarian adenocarcinoma; 48 h with compound, further 48 h, MTT; Table 1
In short: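 Cells plated overnight, then exposed to compound (1:3 dilutions, 100 μM to 1.7 nM, quadruplicate) 48 h at 37 °C, followed by 48 h in fresh medium. MTT 4 h, formazan extracted in DMSO/Sorensen's buffer pH 10.5, A570; four-parameter logistic fit on 0–100% survival scale.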

[4] = test system: HT 29 (Colon adenocarcinoma); experiment: In vitro cytotoxicity, microculture tetrazolium (MTT) assay, HT29; details: Homo sapiens, HT-29, 48 h with compound, further 48 h, Table 1
In short: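 HT29 cells exposed to compound (1:3 series, 100 μM to 1.7 nM, quadruplicate) for 48 h at 37 °C, then 48 h in fresh medium. Viability by MTT reduction, formazan absorbance at 570 nm; four-parameter logistic fit on 0-100% survival scale.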

SMILES	VLB/OV3 (VLB/OV3)	pIC50 [1]	pIC50 [2]	pIC50 (Lox (Melanoma))	pIC50 [3]	pIC50 [4]
CC(=O)OC1C(C)OC(OC2OC(C(C)=O)CC3=C2C(=O)c2ccccc2C3=O)C(I)C1OC(C)=O (mixture of isomers) [BCH2065, (1'S,1R,1S) and (1'S,1S,3R)-methyl-(1-[2',6'-dideoxy-3',4'-diacetoxy-2'-iodo-L-arabino-hexopyranose]-5,10-dioxo-3,4,5,10-tetrahydronaphtho-[2,3-c]-pyran-3-yl) ketone]	4	–	–	–	–	–
CC(=O)C1CC2=C(C(=O)c3ccccc3C2=O)C(OCC2CCN(C(=O)OC(C)(C)C)CC2)O1.Cl (racemic) [BCH2068, Methyl-(1-O-[N-BOC-4-piperidine-methanol]-5,10-dioxo-3,4,5,10-tetrahydronaphthaleno-[2,3-c]pyran-3-yl) ketone, racemic, hydrochloride]	1	–	–	–	–	–
COP(=O)(CC(=O)[C@H]1CC2=C(C(=O)c3ccccc3C2=O)[C@H](O[C@H]2C[C@H](NC(=O)C(F)(F)F)[C@H](O)[C@H](C)O2)O1)OC [BCH1690, (1'S,1S,3R)-1-(2',3',6'-trideoxy-3'-trifluoroacetamido-L-lyxohexopyranose)-3-dimethylphosphonoacetyl-5,10-dioxo-3,4,5-10-tetrahydro-1H-naphtho-[2,3-c]-pyran]	7.70	–	–	–	–	–
COC(=O)[C@@]1(C)CC2=C(C(=O)c3ccccc3C2=O)[C@H](O[C@H]2C[C@H](NC(=O)C(F)(F)F)[C@H](O)[C@H](C)O2)O1 [BCH2076, (1'S,1S,3R)-1-(3'-trifluoroacetamido-2',3',6'-trideoxy-lyxo-L-hexopyranose)-3-methoxycarbonyl-3-methyl-3,4,5,10-tetrahydro-5,10-dioxo-naphtho-[2,3-c]pyran]	–	4.91	5.19	5.74	5.84	5.59
COC(=O)[C@]1(C)CC2=C(C(=O)c3ccccc3C2=O)[C@@H](O[C@H]2C[C@H](NC(=O)C(F)(F)F)[C@H](O)[C@H](C)O2)O1 [BCH2077, (1'S, 1R, 3S)-1-(3-trifluoroacetamido-2',3',6'-trideoxy-L-lyxohexopyranose)-3-methoxycarbonyl-3-methyl-3,4,5,10-tetrahydro-5,10-dioxo-1H-naphtho-[2,3-c]pyran]	–	4.68	5.11	5.72	5.71	5.47
COC(=O)[C@]1(C)CC2=C(C(=O)c3ccccc3C2=O)[C@H](O[C@H]2C[C@H](NC(=O)C(F)(F)F)[C@H](O)[C@H](C)O2)O1 [BCH2081, (1'S, 1S, 3S)-1-(3'-trifluoroacetamido-2',3',6'-trideoxy-lyxohexopyranose)-3-methoxycarbonyl-3-methyl-5,10-dioxo-4,5,10-trihydro-1H-naphtho-[2,3-c]-pyran]	–	4.72	5.13	5.57	5.89	5.42
CC(=O)[C@@]1(C)CC2=C(C(=O)c3ccccc3C2=O)[C@H](O[C@H]2C[C@H](NC(=O)C(F)(F)F)[C@H](O)[C@H](C)O2)O1 [BCH2082, (1'S, 1S, 3R)-1-(3'-trifluoroacetamido-2',3',6'-trideoxy-L-lyxohexopyranose)-3-acetyl-3-methyl-5,10-dioxo-4,5,10-trihydro-1H-naphtho-[2,3-c]-pyran]	–	5.25	5.40	5.80	5.74	5.59
CC[C@H]1CO[C@H](O[C@H]2C[C@H](NC(=O)C(F)(F)F)[C@H](O)[C@H](C)O2)C2=C1C(=O)c1ccccc1C2=O [BCH2091, (1'S, 1R, 4R)-5,10-dioxo-4-ethyl-1-(2',3',6'-trideoxy-3'-trifluoroacetamido-L-lyxohexopyranose)-3,4,5,10-tetrahydro-1H-naphtho-[2,3-c]pyran]	–	4.49	4.80	5.48	4.87	4.95
CC(=O)O[C@@H]1[C@H](C)O[C@@H](O[C@@H]2O[C@@H](C(C)=O)CC3=C2C(=O)c2ccccc2C3=O)C(Br)[C@@H]1OC(C)=O (stereo partly drawn) [BCH2099, (1'S,1S,3R)-methyl-(1-[2',6'-dideoxy-3',4'-diacetoxy-2'-bromo-L-lyxohexopyranose]-5,10-dioxo-3,4,5,10-tetrahydronaphtho-[2,3-c]-pyran-3-yl) ketone]	–	5.08 to 6.34	5.47 to 6.14	5.96 to 6.89	5.70 to 6.22	5.77 to 6.52
CC(=O)O[C@@H]1[C@H](C)O[C@@H](O[C@H]2O[C@H](C(C)=O)CC3=C2C(=O)c2ccccc2C3=O)C(Br)[C@@H]1OC(C)=O (stereo partly drawn) [BCH2100, (1'S,1R,3S)-methyl-(1-[2',6'-dideoxy-3',4'-diacetoxy-2'-bromo-L-lyxohexopyranose]-5,10-dioxo-3,4,5,10-tetrahydronaphtho-[2,3-c]-pyran-3-yl) ketone]	–	5.09	5.40	5.52	5.57	5.29
CC(C)C(=O)[C@@H]1CC2=C(C(=O)c3ccccc3C2=O)[C@@H](O[C@H]2C[C@H](NC(=O)C(F)(F)F)[C@H](O)[C@H](C)O2)O1 [BCH2112, (1'S, 1R, 3S)-isopropyl-[1-(2',3',6'-trideoxy-3'-trifluoroacetamido-L-lyxohexopyranose)-5,10-dioxo-3,4,5,10-tetrahydro-1H-naphtho-[2,3-c]-pyranyl]-ketone]	–	5.77	6.57	6.68	6.98	7.19
COC1OC(C(C)=O)=CC2=C1C(=O)c1ccccc1C2=O (stereo not shown) [BCH2129, 3-Aceto-5,10-dioxo-1-methoxy-5,10-dihydro-1H-naphtho-(2,3-c)-pyran]	–	5.97	6.34	6.64	6.44	5.68
CO[C@H]1C[C@H](O[C@H]2O[C@H](C(C)=O)C[C@]34O[C@]23C(=O)c2ccccc2C4=O)O[C@@H](C)[C@H]1OS(C)(=O)=O [BCH2141, (1'-S,1-R,3-S,4a-S,10a-S)-methyl-(1-[2',3',4',6'-tetradeoxy-3'-methoxy-4'-O-methanesulfonyl-L-lyxohexopyranose)-4a,10a-epoxy-5,10-dioxo-3,4,5,10-tetrahydronaphtho-[2,3-c]pyran-3-yl) ketone]	–	5.00	5.42	5.74	5.09	5.19
CC(=O)C1CC2=C(C(=O)c3ccccc3C2=O)C(OC2CC(NC(=O)C(F)(F)F)C(O)C(C)O2)O1 [BCH2144, (1R, 3S)-1-(2',3',6'-trideoxy-3'-trifluoroacetamido-4'-hydroxy-1,5-dihydro-L-lyxohexopyranose-2-yl)-5,10-dioxo-3,4,5,10-tetrahydro-1H-naphtho-[2,3-c] pyran]	0.75	–	–	–	–	–
COC(=O)C1=CC2=C(C(=O)c3ccccc3C2=O)C(OC)O1 (stereo not shown) [BCH2160, 1-methoxy-3-methoxy carbonyl-5,10-dioxo-5,10-dihydro-1H-naphtho-[2,3-c]-pyran]	–	5.04	5.02	5.13	5.31	4.80
COC1OC(C(=O)NCCN2CCCC2)=CC2=C1C(=O)c1ccccc1C2=O (stereo not shown) [BCH2839, 1-methoxy-3-[2-(N-pyrrolidinyl)ethylaminocarbonyl]-5,10-dioxo-5,10-dihydro-1H-naphtho-[2,3-c]-pyran hydrochloride salt]	–	6.34 to 6.65	6.54 to 7.24	6.01 to 6.58	7.34 to 7.44	6.31 to 6.76
